Laboratory results as given in patent US10668049B2, “Methods of treating cognitive decline with transforming growth factor beta inhibitors” (The Regents of the University of California, priority 2008, dated 2020).

Legend:
[1] = tested on: neocortical slices; assay: Field potential recordings of epileptiform activity in neocortical slices; type: cell-based, rat
Description: Brain slices for the in vitro experiments were prepared by means of standard techniques (Ivens et al., 2007; Pavlovsky et al., 2003; Seiffert et al., 2004). Slices were transferred to a recording chamber where they were incubated in aCSF containing BSA (6.7 mg/ml), TGF-β1 (10 ng/ml) or artificial serum (aSerum, composition based on aCSF with the following changes, composition in mM: 0.8 MgSO4, 1.3 CaCl2, 5.7 KCl, 1 L-glutamine, 0.1 albumin). To block the activity of TGF-β1, slices were incubated in aCSF containing SB431542 (10 μM) before the addition of TGF-β1 (10 ng/ml). To block TGF-βRs, slices were incubated in aCSF containing SB431542 (10 μM) and TGF-βRII antibody (10 μg/ml) for 30 min followed by incubation in BSA in the presence of TGF-βR blockers. For detection of epileptiform activity, field potentials were recorded >4 h following incubation in cortical layer IV using extracellular glass microelectrodes (˜3 MΩ) in response to bipolar stimulation at the border of white and grey matter.
To assess the hypothesis that activation of the TGF-β signaling pathway is the mechanism underlying albumin-induced epileptogenesis, we activated this pathway directly by incubating neocortical slices with TGF-β1 (10 ng/mL) in artificial cerebrospinal fluid (aCSF) and performed electrophysiological recordings. These recordings were compared to those of slices treated with a solution containing serum levels of electrolytes and 0.1 mM albumin (aSERUM, previously shown to induce epileptogenesis; Ivens et al., 2007), albumin in aCSF, or aCSF (control). […] When albumin was added to the control aCSF solution, epileptiform activity was recorded in response to stimulation of the white matter (n=8 out of 12 slices, 6 animals). Importantly. TGF-β1 treatment was sufficient to recapitulate epileptiform activity similar to that seen following treatment with aSERUM and albumin in aCSF (n=5 out of 5 slices, 4 animals; n=7 out of 9 slices, 3 animals; and n=8 out of 12 slices, 6 animals, respectively). In all three cases, the evoked epileptiform activity, was all-or-none in nature, paroxysmal and prolonged, similar to that seen following BBB opening with bile salts (Ivens et al., 2007; Seiffert et al., 2004) and typical to that observed in acute models of epilepsy (Gutnick et al., 1982).
To further confirm that the TGF-β1 induced epileptiform activity was dependent on the TGF-βR mediated pathway, we performed additional trials of the above experiments in the presence of two TGF-βR blockers (SB431542, the TGF-βRI kinase activity inhibitor and TGF-βRII antibody).

[2] = molecular target: T1, astrocyte specific glutamate transporter, SLC1A2 (Rattus norvegicus, UniProt P31596); assay: Whole cell patch recording of NMDA-mediated EPSCs in cortical pyramidal neurons; type: cell-based; settings: DHK 100 μM
T1 construct: In vitro intracellular recordings were obtained from pyramidal neurons (layer 2-3) 23-28 h following the in vivo treatment; from tissue; host or cells: acute rat neocortical slices (astrocytic transporter; recordings from layer 2-3 pyramidal neurons)
T1 sequence (P31596 whole entry): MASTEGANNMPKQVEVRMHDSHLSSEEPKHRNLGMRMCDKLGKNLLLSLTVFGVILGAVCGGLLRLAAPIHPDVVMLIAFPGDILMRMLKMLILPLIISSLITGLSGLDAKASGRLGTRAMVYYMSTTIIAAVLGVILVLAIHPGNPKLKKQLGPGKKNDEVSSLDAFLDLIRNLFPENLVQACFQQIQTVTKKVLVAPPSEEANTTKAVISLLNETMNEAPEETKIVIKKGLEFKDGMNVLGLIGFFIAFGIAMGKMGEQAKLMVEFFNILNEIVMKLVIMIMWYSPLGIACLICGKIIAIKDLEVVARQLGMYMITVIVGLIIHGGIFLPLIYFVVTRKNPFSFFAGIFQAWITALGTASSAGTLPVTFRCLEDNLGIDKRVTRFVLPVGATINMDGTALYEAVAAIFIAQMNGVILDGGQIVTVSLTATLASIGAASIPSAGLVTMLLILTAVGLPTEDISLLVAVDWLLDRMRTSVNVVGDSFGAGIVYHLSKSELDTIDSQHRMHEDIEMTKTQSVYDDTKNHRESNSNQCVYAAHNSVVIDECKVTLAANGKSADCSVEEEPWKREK
Description: In vitro intracellular recordings were obtained from pyramidal neurons (layer 2-3) 23-28 h following the in vivo treatment with albumin or from control rats. Currents were recorded using the whole cell patch configuration, as described previously (Pavlovsky et al., 2003). In brief, glass pipettes were pulled from capillaries using a vertical puller (Narashige, Greenvale, N.Y.) and filled with a solution comprising (in mM): 150 CsCl, 1 MgCl2, 10 HEPES, 4 Na2ATP, 0.1 CaCl2, and 1.1 mM EGTA, pH adjusted to 7.2 with a final osmolarity of 290-310 mOsm. Cells were visualized using infrared differential interference phase contrast video-microscopy. Recordings were performed using AxoPatch 700B (Axon Instruments, Foster City, Calif.), digitized at 10 kHz and recorded using pClamp 9.2 (Axon Instruments, Foster City, Calif.). Patch pipette's resistance was 4-5 MΩ. Series resistance was not electronically compensated; however, cells in which series resistance varied by more than 25% were excluded from the analysis. Stimulation protocols were started at least 5 min following impalement to allow intracellular dialysis with the pipette solution. Excitatory post-synaptic currents (EPSCs) were evoked—using a bipolar stimulating electrode positioned <200 μm from the recorded cell—at 75% of the intensity producing maximal EPSCs. N-methyl-D-aspartic acid (NMDA) currents were recorded in the presence of blockers of α-amino-3-hydroxy-5-methyl-4-isoxazole-propionic acid (AMPA)/kainate (i.e., 30 μM CNQX) and of gamma-aminobutyric acid A (GABAA) receptors (i.e., 10 μM bicuculine methiodide). Cells were voltage clamped to +40 mV to alleviate NMDA receptor blockade and inactivate fast Na^+ currents. In some experiments, dihydrokainic acid (DHK, Tocris, Bristol, UK), 100 μM, was added to the extracellular solution to selectively block the astrocyte specific glutamate transporter, SLC1A2 (see Arriza et al., 1994).
To confirm that the transcriptional changes induced by albumin were associated with altered cellular functions, the clearance of extracellular glutamate and potassium in cortical slices 24 hours following albumin treatment in vivo was investigated. To measure synaptic glutamate levels during neuronal activation, the slowly inactivating (Lester et al., 1990) NMDA currents in cortical neurons were recorded by using the whole-cell patch configuration (in the presence of non-NMDA glutamate and GABA receptor blockers, see Methods). Cells were clamped at +40 mV to prevent a potential confounding effect of post-synaptic depolarization due to the accumulation of synaptic [K^+]o. […] Synaptic glutamate elicited by 50 extracellular stimulations at 2, 5, 10, 20, 50 and 100 Hz before and after adding the astrocytic SLC1A2 specific inhibitor, DHK was measured. In neurons from control animals, DHK had no effect on single EPSCs or EPSCs elicited at low stimulation frequencies (<20 Hz). […] The same experiments were then repeated 24 h following cortical application of albumin (i.e. during epileptogenesis). In contrast to the control experiments, DHK had no effect on EPSC amplitude in treated slices (FIG. 13b-c, right), supporting reduced expression of the astrocytic transporter SLC1A2.

[3] = tested on: albumin-induced epileptogenesis; assay: EEG recording from awake rats during albumin-induced epileptogenesis; type: in vivo, rat

For “TGF-β1: TGF-β1 (10 ng/ml, Peprotech), used to activate the TGF-β pathway”, the “integral of the field potential” value ([1]; inducer alone, without TGF-βR blockers) was 84.1±20.1 mV*ms and the “evoked epileptiform activity in response to stimulation of the white matter, slices showing it” value ([1]; slices incubated with the inducer) was 5 out of 5.

`CC(C)[C@H]1CN[C@H](C(=O)O)[C@H]1CC(=O)O` [DHK, dihydrokainic acid, reference compound] was tested, and the “effect on NMDA currents at stimulation frequencies >20 Hz” value ([2]; neurons from control animals) was “increased NMDA currents”, the “effect on single EPSCs or EPSCs elicited at low stimulation frequencies (<20 Hz)” value ([2]; neurons from control animals) was “no effect” and the “effect on EPSC amplitude” value ([2]; slices 24 h following cortical application of albumin) was “no effect”.

In the case of `CCCCc1nc(Cl)c(CO)n1Cc1ccc(-c2ccccc2-c2nnn[nH]2)cc1.[K]` [Losartan, 2-butyl-4-chloro-1-[p-(o-1H-tetrazol-5-ylphenyl)benzyl]imidazole-5-methanol, monopotassium salt, reference compound], the “number of seizure like events (SLEs)” value ([3]; losartan-treated rats (n=7) compared to BSA-treated ones (n=8)) is reported as “significantly smaller” and the “albumin-induced EEG changes (signal harmony, complexity) during epileptogenesis” value ([3]; single, focal application together with BSA, 10 μM) is reported as “reversed the albumin-induced EEG changes”.
